Data taken from patent publication US20070128719A1, “ISOLATION AND EXPANSION OF ANIMAL CELLS IN CELL CULTURES” (TissueTech, Inc., priority 2003, published 2007).

How the values were obtained:
human limbal explants = experiment: Epithelial outgrowth from human limbal explants cultured on intact AM with kinase inhibitors; type: cell-based; settings: for epithelial outgrowth: limbal explant on intact AM in SHEM, vs DMSO control; for time to re-initiation of outgrowth after switch to fresh medium / time to reach ~80% confluence after removal of inhibitor: after 17 days of treatment at 50 μM
Procedure: Human AM was provided by Bio-Tissue (Miami, Fla.) and stored at −80° C. before use. AM was devitalized by freezing and thawing and washed three times with HBSS before being fastened onto a 30 mm culture insert, Millicel-CM (which generated an insert with 23 mm diameter covered by AM), and placed in a 6 well plate (Meller, D. and Tseng S C G, Invest Ophthalmol Vis Sci., 40:878-86, 1999).
After removal of excessive sclera, iris, corneal endothelium, conjunctiva, and Tenon's capsule, the limbal ring was separated by a 7.5 mm trephine from donor human corneas. Each limbal ring was rinsed 3 times with SHEM media. The limbal ring was then exposed for 10 min to 1.2 units/ml Dispase II in Mg^2+- and Ca^2+-free HBSS at 37° C. under 95% humidity and 5% CO2. Following three rinses with SHEM medium, each limbal ring was subdivided into two halves and each half further subdivided into 6 pieces of 1×1.5×2.5 mm explants. To eliminate variations of age, sex, and race, explants from the corresponding position of the same donor cornea were selected for the control and the experimental group, respectively. An explant was placed on the center of intact AM or plastic with the epithelial side facing up and cultured in SHEM medium. The experimental group was added with the inhibitor of desired concentration, while the control group was added with the same concentration of DMSO as the vehicle which was used to dissolve each inhibitor. The culture was maintained at 37° C. under 95% humidity and 5% CO2, the medium was changed every other day, and their outgrowth was monitored daily for 17 days using an inverted phase microscope (Nikon, Japan). The outgrowth area was digitized every other day by Adobe Photoshop 5.5 and analyzed by NIH ImageJ 1.30v (NIH, Bethesda, Md.).
All experiments were performed at least in triplicate. Summary data were reported as means±S.D., compiled and analyzed by MicroSoft Excel™ (MicroSoft, Redmont, Wash.). The mean and standard deviation were calculated for each group using the appropriate version of Student's unpaired t-test. Test results were reported as two-tailed p values, where p<0.05 was considered statistically significant.

Akt = experiment: Western blot of Akt phosphorylation in limbal epithelial cells expanded on intact AM; type: cell-based, human; settings: 50 μM
FKHRL1 = experiment: Western blot of FKHRL1 phosphorylation in limbal epithelial cells expanded on intact AM; type: cell-based, human; settings: 50 μM
p44/42 MAPK = experiment: Western blot of p44/42 MAPK phosphorylation in limbal epithelial cells expanded on intact AM; type: cell-based, human; settings: 50 μM
TGF-β1 promoter = experiment: TGF-β promoter assay in human limbal epithelial cells; type: cell-based
Procedure: Human corneal fibroblasts were transiently transfected with the aforementioned adenoviral promoter constructs. […] 2, 2005 and entitled “Suppression Of TGF-B Activity By Amniotic Membrane Extracts, Compositions Thereof, And Methods For The Prevention And Suppression Of Scarring And Inflammation” in a dose-dependent manner (from 0.04 to 125 μg/ml) in human corneal fibroblasts. […] The suppressive effect of both AME and HA alone was lost after pretreatment with HAse. […] A similar result was obtained for TGF-βRII promoter activity.

| epithelial outgrowth (human limbal explants; 50 μM) | Compound | epithelial outgrowth (human limbal explants; 5 μM, up to 17 days) | epithelial outgrowth (human limbal explants; 10 μM, up to 17 days) | time to re-initiation of outgrowth after switch to fresh medium (human limbal explants) | time to reach ~80% confluence after removal of inhibitor (human limbal explants) | phosphorylation of Akt at Thr308 and Ser473 (Akt) | Thr32 phosphorylation of FKHRL1 (FKHRL1) | p44/42 MAPK phosphorylation (p44/42 MAPK) | reduction of the outgrowth rate (human limbal explants; 10 μM, from day 5 to day 11) | reduction of the outgrowth rate (human limbal explants; 10 μM, from day 11 on) | suppressive effect on TGF-β1 promoter activity after pretreatment with HAse (TGF-β1 promoter) |
| --- | --- | --- | --- | --- | --- | --- | --- | --- | --- | --- | --- |
|  | O=c1cc(N2CCOCC2)oc2c(-c3ccccc3)cccc12 [LY294002] | not significantly inhibited | not significantly inhibited | 2 days | 30 days |  |  |  |  |  |  |
| completely inhibited | CCOC(=O)c1ccc2[nH]c3c(OC)c4[nH]c5ccc(C(=O)OCC)cc5c4cc3c2c1 [SR13668] |  |  | 2 days | 30 days | abolished | abolished | did not change | 50% | 60% |  |
|  | hyaluronic acid [HA] |  |  |  |  |  |  |  |  |  | lost |
